In article PMC4384300, “Evaluation of the in vitro trypanocidal activity of methylated flavonoid constituents of Vitex simplicifolia leaves” (BMC Complementary and Alternative Medicine, 2015):
Values after ≈ are worked out from the molar mass of the structure shown. Like-named read-outs stand apart in the source and are kept apart here.

What was measured:
L6 cells = test: Cytotoxicity in rat skeletal myoblast cell line (L6 cells); assay type: cell-based
Method: Cytotoxicity was determined using a rat skeletal myoblast cell line (L6 cells). The culture medium was RPMI 1640 supplemented with L-glutamine 2 mM, HEPES 5.95 g/l, NaHCO3 2 g/l and 10% foetal bovine serum. Podophyllotoxin (Sigma-Aldrich) was used as the reference drug. The assay was performed following the antitrypanosomal assay protocol as described above. The IC50 values were calculated from the sigmoidal growth inhibition curves using Softmax Pro software (Molecular Devices Corp.). Tests were done in three independent experiments in duplicate.

[1] = tested on: Trypanosoma brucei rhodesiense STIB 900 bloodstream forms; test: In vitro trypanocidal activity (Alamar Blue assay, 72 h); assay type: cell-based; conditions: for IC50: Trypanosoma brucei, 72 h, read-out: T.b.rhodesiense IC50; for SI: selectivity index (IC50 of L6 cells/ IC50 of T.b.rhodesiense): L6 cells versus T. b. rhodesiense
Method: Minimum essential medium (50 μl) supplemented according to a standard method, with 2-mercaptoethanol and 15% heat inactivated horse serum was added to each well of a 96-well microtiter plate. Serial three-fold compound dilutions were prepared covering a range from 90 to 0.123 μg/ml. Then 10^4 bloodstream forms of Trypanosoma brucei rhodesiense STIB 900 (a clone of a population isolated in 1982 from a patient in Tanzania) in 50 μl culture medium were added to each well and the plate incubated at 37°C under a 5% CO2 atmosphere for 72 h. Ten microlitres of Alamar Blue (12.5 mg resazurin dissolved in 100 ml distilled water) were then added to each well and incubation continued for a further 2–4 h. The plate was then read in a Spectramax Gemini XS microplate fluorometer (Molecular Devices Cooperation, Sunnyvale, CA, USA) using an excitation wavelength of 536 nm and emission wavelength of 588 nm. Fluorescence development was measured and expressed as percentage of the control. Data were transferred into the graphic programme Softmax Pro (Molecular Devices) which calculated IC50 values. Melarsoprol was used as standard drug.

[2] = T. b. rhodesiense STIB 900 bloodstream forms, 72 h incubation, Alamar Blue
[3] = rat skeletal myoblast L6 cells, cytotoxicity, read-out: L6 Cells IC50

| Compound | IC50 (L6 cells; [3]) [µg/mL] | IC50 [1, 2] [µg/mL] | other results |
| --- | --- | --- | --- |
| 2-(3′,4′-dimethoxyphenyl)-7-hydroxychromen-4-one [Compound 7] | – | – | L6 Cells IC50 (L6 cells; rat skeletal myoblast L6 cells, cytotoxicity): 1.58 µg/mL; T.b.rhodesiense IC50 [1, 2]: 10.8 µg/mL |
| COc1cc(-c2oc3cc(O)cc(O)c3c(=O)c2OC)ccc1O [Compound 2, 2-(5′-methoxyphenyl) 4′,5,7-trihydroxy-3-methoxychromen-4-one] | 6.64 (≈ 20.1 µM) | 12.3 (≈ 37.2 µM) | – |
| COc1cc2oc(-c3ccc(O)cc3)c(OC)c(=O)c2c(O)c1OC [Compound 3, Penduletin] | 14 (≈ 40.7 µM) | – | T.b.rhodesiense IC50 [1, 2]: 13.8 µg/mL |
| COc1cc(O)c2c(=O)c(OC)c(-c3ccc(O)cc3)oc2c1 [Compound 4, 2-(4′-hydroxyphenyl)-5-hydroxy 3,7-dimethoxy chromen-4-one] | 28.2 (≈ 89.7 µM) | 19.4 (≈ 61.7 µM) | SI: selectivity index (IC50 of L6 cells/ IC50 of T.b.rhodesiense) [1]: 1.4 |
| O=c1c(O)c(-c2ccc(O)cc2)oc2cc(O)cc(O)c12 [Compound 5, 2-(4-hydroxyphenyl)-3,5,7-trihydroxy chromen-4-one] | 100 (≈ 349 µM) | 23.7 (≈ 82.8 µM) | – |
| COc1ccc(-c2oc3cc(OC)c(OC)c(O)c3c(=O)c2OC)cc1OC [Compound 6, Artemetin] | 46.2 (≈ 119 µM) | 4.7 (≈ 12.1 µM) | SI: selectivity index (IC50 of L6 cells/ IC50 of T.b.rhodesiense) [1]: 9.8 |
| Nc1nc(N)nc(Nc2ccc([As]3SCC(CO)S3)cc2)n1 (stereo not shown) [Melarsoprol, reference compound] | – | – | IC50 [1]: 0.002 µg/mL |
| COc1cc([C@@H]2c3cc4c(cc3[C@H](O)[C@H]3COC(=O)[C@H]23)OCO4)cc(OC)c1OC [Podophyllotoxin, reference compound] | – | – | IC50 (L6 cells; Rattus norvegicus, L6, read-out: L6 Cells IC50): 0.005 µg/mL (≈ 0.0121 µM) |
